According to the supplement of paper PMC5908809:

Legend:
KHYG-1 (IL-2 2.5 ng/mL) [1] = test: drug sensitivity score (DSS) (DSS units); higher = more sensitive; extreme values may be limits of the assay; conditions: 72 h
DERL-7 (IL-2 2.5 ng/mL) [2] = test: as above; conditions: 72 h
KAI3 (IL-2 2.5 ng/mL) [3] = test: as above; conditions: 72 h
[4] = system: normal primary NK cells, pool 1 (3 donors), resting (IL-2 0 ng/mL); test: as above; conditions: 72 h
[5] = system: normal primary NK cells, pool 1 (3 donors) (IL-2 2.5 ng/mL); test: as above; conditions: 72 h
NKL (IL-2 2.5 ng/mL) [6] = test: as above; conditions: 72 h
[7] = system: normal primary NK cells, pool 2 (3 donors) (IL-2 2.5 ng/mL); test: as above; conditions: 72 h
IMC-1 (IL-2 20 ng/mL) [8] = test: as above; conditions: 72 h
NK-YS (IL-2 2.5 ng/mL) [9] = test: as above; conditions: 72 h
NK-92 (IL-2 2.5 ng/mL) [10] = test: as above; conditions: 72 h
SNK-6 (IL-2 2.5 ng/mL) [11] = test: as above; conditions: 72 h
YT (IL-2 2.5 ng/mL) [12] = test: as above; conditions: 72 h
[13] = system: normal primary NK cells, pool 3 (3 donors) (IL-2 2.5 ng/mL); test: as above; conditions: 72 h
[14] = system: normal NK cells expanded with K562-aAPC; test: percent inhibition of viability; higher = more inhibition; conditions: 72 h, IL-2 2.5 ng/mL
Procedure: (§1)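 Drug sensitivity and resistance testing on K562-aAPC-expanded normal NK cells: 5 concentrations (10-fold steps over a 10,000-fold range), 72 h at 37 °C, viability by CellTiter-Glo normalised to DMSO and benzethonium chloride controls; DSS from the fitted curve.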

KHYG-1 (IL-2 2.5 ng/mL) [15] = test: as above; conditions: 72 h
DERL-7 (IL-2 2.5 ng/mL) [16] = test: as above; conditions: 72 h
KAI3 (IL-2 2.5 ng/mL) [17] = test: as above; conditions: 72 h
[18] = system: normal primary NK cells, pool 1 (3 donors), resting (IL-2 0 ng/mL); test: as above; conditions: 72 h
[19] = system: normal primary NK cells, pool 1 (3 donors) (IL-2 2.5 ng/mL); test: as above; conditions: 72 h
NKL (IL-2 2.5 ng/mL) [20] = test: as above; conditions: 72 h
[21] = system: normal primary NK cells, pool 2 (3 donors) (IL-2 2.5 ng/mL); test: as above; conditions: 72 h
IMC-1 (IL-2 20 ng/mL) [22] = test: as above; conditions: 72 h
NK-YS (IL-2 2.5 ng/mL) [23] = test: as above; conditions: 72 h
NK-92 (IL-2 2.5 ng/mL) [24] = test: as above; conditions: 72 h
SNK-6 (IL-2 2.5 ng/mL) [25] = test: as above; conditions: 72 h
YT (IL-2 2.5 ng/mL) [26] = test: as above; conditions: 72 h
[27] = system: normal primary NK cells, pool 3 (3 donors) (IL-2 2.5 ng/mL); test: as above; conditions: 72 h
[28] = system: normal NK cells expanded with K562-aAPC; test: drug sensitivity score (DSS) (DSS units); higher = more sensitive; extreme values may be limits of the assay; conditions: 72 h; IL-2 2.5 ng/mL
Procedure: as §1

NS(=O)(=O)OC[C@@H]1C[C@@H](n2ccc3c(N[C@H]4CCc5ccccc54)ncnc32)C[C@@H]1O [Pevonedistat] (max concentration tested 10000 nM)
Conditions	drug sensitivity score
DERL-7 (IL-2 2.5 ng/mL) [2]	16.3
IMC-1 (IL-2 20 ng/mL) [8]	22.6
KAI3 (IL-2 2.5 ng/mL) [3]	27.2
KHYG-1 (IL-2 2.5 ng/mL) [1]	26.2
NK-92 (IL-2 2.5 ng/mL) [10]	14.2
NK-YS (IL-2 2.5 ng/mL) [9]	15
NKL (IL-2 2.5 ng/mL) [6]	16.1
SNK-6 (IL-2 2.5 ng/mL) [11]	29
YT (IL-2 2.5 ng/mL) [12]	22.8
[4]	0
[5]	14
[7]	9.66
[13]	14
[28]	12.6

percent inhibition of viability [%]
Conditions	1 nM	10 nM	100 nM	1000 nM	10000 nM
DERL-7 (IL-2 2.5 ng/mL) [16]	1.08	2.36	-6.58	91.5	101
IMC-1 (IL-2 20 ng/mL) [22]	0.59	6.87	46.6	92.8	98.2
KAI3 (IL-2 2.5 ng/mL) [17]	9.59	12.4	70.2	95	100
KHYG-1 (IL-2 2.5 ng/mL) [15]	3.14	-1.1	71.7	105	106
NK-92 (IL-2 2.5 ng/mL) [24]	-8.15	6.99	1.09	75.8	109
NK-YS (IL-2 2.5 ng/mL) [23]	0.95	-1.33	3.83	78.1	98.4
NKL (IL-2 2.5 ng/mL) [20]	-12.9	-14.6	-16.9	92.3	104
SNK-6 (IL-2 2.5 ng/mL) [25]	23.6	3.72	89	97.2	99.5
YT (IL-2 2.5 ng/mL) [26]	-2.08	2.87	62.7	79.6	82.8
[14]	-5	-5.72	-9.68	70.2	80.3
[18]	1.82	21.5	-26.7	-18.9	-22.4
[19]	-6.09	19.2	23.3	57.4	69.8
[21]	-6.66	4.92	9.96	45	64.2
[27]	-5.71	5	10.3	68.8	81
